Assay: Size of crystals collected after neutralization

Substance: hexamethylenediamine adipate
- Average size of crystals (Example 1, from aqueous medium, pH 7.5, 60°C.): 700 microns
- Grain size of collected crystals (comparative example, methanol as solvent): about 250 microns
